The values below come from US11447531B2, “Cleavable peptides and insecticidal and nematicidal proteins comprising same” (Vestaron Corporation, priority 2016, dated 2022).

One experiment concerns gut enzymes of Corn Earworm. Put plainly: FRET peptide cleavage by lepidopteran gut enzymes (LEP). In kind it is biochemical, Helicoverpa zea. Particulars: LEP (X); pooled FRET screening Round 1; slope of fluorescence over 10 minutes, steepest slope = 100%; representative cleavable sequences. The text has this: Corn Earworm insects were obtained commercially from Benzon Research (Carlisle, Pa.) as eggs. Hatched larvae were raised on artificial diet until ⅘^th instar (20 mm long) before guts were isolated. Before gut extract, larvae were anesthetized using CO2. The larva was then pinned on the dissection plate at both the head and the tail. Using dissection scissors, the cuticle was nicked. The dissection scissors were then inserted into the nick and the […] along the insect. The cuticle was then carefully pulled back and pinned open to reveal the digestive track. Using DI water, the insect was thoroughly rinsed to remove hemolymph. The gut was then excised with tweezers and placed in a solution of 500 μL of 200 mM Tris-HCl pH 8.1 150 mM NaCl (assay buffer). The tube was pre-weighed and post-weighed to calculate the total amount of gut added. CEW gut was diluted to a stock concentration of 7 mg/ml (10×) in 200 mM Tris-HCl pH 8.1 150 mM NaCl. This was diluted fresh each plate by 20× with the assay buffer.
For AKF, the “% of Max Slope” value stood at 93%.
In the case of AKS, the “% of Max Slope” value turned out to be 90%.
In the case of AKT, the “% of Max Slope” value was 90%.
For the substance AKY, the “% of Max Slope” value came out at 93%.
Consider ARF, for which the “% of Max Slope” value was 93%.
For ARS, the “% of Max Slope” value was 90%.
Turning to ART, the “% of Max Slope” value came to 90%.
Still for that read-out and setting: the value for ARY was 93%; that for ISK was 89%.
With ISR, the “% of Max Slope” value is listed as 89%.
With ITK, the “% of Max Slope” value is on record as 89%.
As to ITR, the “% of Max Slope” value is 89%.
Regarding KKF, the “% of Max Slope” value is recorded as 92%.
Still for that read-out and setting: the value for KKS was 93%; that for KKT was 93%; that for KKY was 92%.
For the substance KRF, the “% of Max Slope” value was 92%.
Take KRS: the “% of Max Slope” value was found to be 93%.
For the substance KRT, the “% of Max Slope” value is reported as 93%.
Regarding KRY, the “% of Max Slope” value was 92%.
For KSK, the “% of Max Slope” value was determined as 90%.
As to KSR, the “% of Max Slope” value is recorded as 90%.
KTK: the “% of Max Slope” value worked out at 90%.
Turning to KTR, the “% of Max Slope” value is given as 90%.
Consider LSK, for which the “% of Max Slope” value was found to be 89%.
Same read-out and setting: the value for LTR was 89%; that for PKK was 100%.

Staying with this experiment, now noted: LEP (X); pooled FRET screening; failed cleavable sequences.
Consider PKK, for which the “% of Max Slope” value is recorded as 0%.

The test system of the next experiment is gut enzymes of Southern Corn Rootworm. Put plainly: FRET peptide cleavage by coleopteran gut enzymes (COLEOP). Particulars: COLEOP (X); pooled FRET screening Round 1; slope of fluorescence over 10 minutes, steepest slope = 100%; representative cleavable sequences.
Regarding AIK, the “% of Max Slope” value is reported as 70%.
Regarding AIR, the “% of Max Slope” value amounted to 70%.
For the substance ALK, the “% of Max Slope” value was found to be 70%.
For ALR, the “% of Max Slope” value was found to be 70%.
The same measure, in the same setting: the figure for IKA is 56%.
The same measure, in the same setting: the value for IKN was 100%.
As for IKQ, the “% of Max Slope” value turned out to be 100%.
Take IKS: the “% of Max Slope” value was found to be 68%.
Consider IKT, for which the “% of Max Slope” value came out at 68%.
Take IKV: the “% of Max Slope” value was 56%.
On to INK, for which the “% of Max Slope” value came to 56%.
As to INR, the “% of Max Slope” value is on record as 56%.
Take IQK: the “% of Max Slope” value is recorded as 56%.
Consider IQR, for which the “% of Max Slope” value is 56%.
In the case of IRN, the “% of Max Slope” value is reported as 100%.
Consider IRQ, for which the “% of Max Slope” value was 100%.
On to IRS, for which the “% of Max Slope” value is reported as 68%.
IRT: the “% of Max Slope” value was determined as 68%.
In the case of KIK, the “% of Max Slope” value is 83%.
As for KIR, the “% of Max Slope” value is 83%.
As to KLK, the “% of Max Slope” value came out at 83%.
On to KLR, for which the “% of Max Slope” value was 83%.
For the substance LKN, the “% of Max Slope” value is 100%.
Still for that read-out and setting: the value for LKQ was 100%; that for LKS was 68%.
On to LKT, for which the “% of Max Slope” value is listed as 68%.
For the substance LNK, the “% of Max Slope” value was 56%.
With LNR, the “% of Max Slope” value is 56%.
LQK: the “% of Max Slope” value amounted to 56%.
Still for that read-out and setting: the value for LQR was 56%.
For the substance LRN, the “% of Max Slope” value came to 100%.
Turning to LRQ, the “% of Max Slope” value is listed as 100%.
Take LRS: the “% of Max Slope” value is 68%.
Still for that read-out and setting: the figure for LRT is 68%; for NIK it is 74%; for NIR it is 74%.
With NLK, the “% of Max Slope” value came out at 74%.
The same measure, in the same setting: the figure for NLR is 74%; for QIK it is 74%.
For the substance QIR, the “% of Max Slope” value is 74%.
As for QLK, the “% of Max Slope” value was 74%.
In the case of QLR, the “% of Max Slope” value amounted to 74%.
Take RIK: the “% of Max Slope” value stood at 83%.
Regarding RIR, the “% of Max Slope” value is 83%.
On to RLK, for which the “% of Max Slope” value is recorded as 83%.
In the case of RLR, the “% of Max Slope” value is listed as 83%.
For VIK, the “% of Max Slope” value is reported as 70%.
Turning to VIR, the “% of Max Slope” value was 70%.
Consider VLK, for which the “% of Max Slope” value turned out to be 70%.
Turning to VLR, the “% of Max Slope” value is 70%.

The experiment is the same for the next values; noted with them: COLEOP (X); pooled FRET screening; failed cleavable sequences.
With IKN, the “% of Max Slope” value is recorded as 0%.
Still for that read-out and setting: the value for IKQ was 0%; that for IRN was 0%.
With IRQ, the “% of Max Slope” value is recorded as 0%.
Still for that read-out and setting: the value for LKN was −2%.
